According to patent US7931904B2, “Modulation of MUC1 activity” (Dana Farber Cancer Institute, Inc., priority 2005, dated 2011):

Tests used:
HCT116/MUC1 cells [1] = assay: Flow cytometry of cell cycle (DNA content); type: cell-based, human; conditions: 48 h
Description: (§1) Flow cytometry. Cells were fixed with 80% ice-cold ethanol, incubated in phosphate buffered saline (PBS) containing 30 μg/ml RNase (Roche Applied Science) for 60 min at 37° C. and then stained with propidium iodide (Sigma) for 30 min at room temperature in the dark. DNA content was analyzed by flow cytometry (Coulter EPICS XL-MCL; Miami, Fla.).

HCT116/vector cells [2] = assay: Flow cytometry of cell cycle (DNA content); type: cell-based, human; conditions: 48 h
Description: as §1

HCT116/MUC1 cells [3] = assay: anti-p53 immunoprecipitation and anti-MUC1 C-ter immunoblot; type: cell-based, human; conditions: 50 or 100 μM, 24 h
Description: (§2) Immunoblotting and immunoprecipitation. Cell lysates were prepared from subconfluent cells as previously described [Wei et al. (2003) J. Biol. Chem. 278:29288-29297]. Immunoblot analysis was performed with anti-p53 antibody (Ab-2, Ab-6; Oncogene Research Products, San Diego, Calif.), anti-MUC1 N-ter antibody [the DF3 monoclonal antibody that binds to the N-terminal segment of human MUC1; Kufe et al. (1984) Hybridoma 3:223-232], anti-MUC1 C-ter antibody (Ab-5 that binds to the C-terminal segment of human MUC1; Neomarkers, Freemont, Calif.), anti-β-actin antibody (Sigma), anti-Myc antibody (Ab-1; Oncogene Research Products), anti-Bax antibody antibody (Santa Cruz Biotechnology; Santa Cruz, Calif.) and anti-p21 (Santa Cruz Biotechnology). Lysates were subjected to immunoprecipitation with anti-p53 or anti-Myc antibody and the immune complexes were analyzed by immunoblotting.

ZR-75-1 cells [4] = assay: as above; type: cell-based, human; conditions: 50 or 100 μM, 24 h
Description: as §2

ZR-75-1 cells [5] = assay: Colony formation assay; type: cell-based, human; conditions: ZR-75-1/vector vs ZR-75-1/MUC1siRNA cells, 12-48 h treatment, 8 d culture
Description: (§3) Colony formation assays. Aliquots containing 500 cells were plated into individual wells of 6-well culture plates containing 2 ml/well complete medium and incubated for 18-24 h at 37° C. The cells were treated with CDDP or etoposide for 12-48 h, washed and incubated for 8 d. Resulting colonies were stained with crystal violet and counted manually.

[6] = test system: HCT116/MUC1 as compared to HCT116/vector cells; assay: Colony formation assay; type: cell-based, human; conditions: 12-48 h treatment, 8 d culture
Description: as §3

HCT116/vector cells [7] = assay: ChIP with anti-p53 antibody, p21 gene p53RE2; type: cell-based, human; conditions: 50 μM, 8 h
Description: (§4) Chromatin immunoprecipitation (ChIP) and Repeat ChIP (Re-ChIP) assays. ChIP assays were performed as previously described [Shang et al. (2000) Cell 103:843-852] using anti-MUC1 C-ter antibody, anti-p53 antibody (Ab-6; Oncogene Research Products), anti-CBP antibody (C-1; Santa Cruz Biotechnology), anti-HDAC1 antibody (Upstate Biotechnology Inc., Waltham, Mass.), anti-Ac-H4 (Upstate Biotechnology Inc.), anti-TBP antibody (58C9; Santa Cruz Biotechnology), anti-TFIIB antibody (IIB8; Santa Cruz Biotechnology), or anti-TAFII250 antibody (6B3; Santa Cruz Biotechnology). For PCR, 2 μl from a 50 μl DNA extraction were used with 30-38 cycles of amplification. The primers for the p21 gene promoter p53-responsive elements (p53RE1 and p53RE2) have been previously described [Liu et al. (2003) J. Biol. Chem. 277:17557-17565]. The primers for the p21 gene control region (CR) were (forward: 5′-[…]-3′ (SEQ ID NO:14); reverse 5′-[…]-3′ (SEQ ID NO:15)) and the p21 gene PP were (forward: 5′-[…]-3′ (SEQ ID NO:16); reverse: 5′-[…]-3′ (SEQ ID NO:17)). Primers used for the Bax gene promoter p53RE were (forward: 5′-[…]-3′ (SEQ ID NO:18); reverse: 5′-[…]-3′ (SEQ ID NO:19)), Bax gene control region (CR) were (forward: 5′-[…]-3′ (SEQ ID NO:20); reverse: 5′-[…]-3′ (SEQ ID NO:21)) and the Bax gene PP were (forward: 5′-[…]-3′ (SEQ ID NO:22); reverse: 5′-[…]-3′ (SEQ ID NO:23)).

HCT116/MUC1 cells [8] = assay: ChIP with anti-MUC1 C-ter antibody, p21 gene p53RE2; type: cell-based, human; conditions: 50 μM, kinetic analysis
Description: as §4

ZR-75-1 cells [9] = assay: as above; type: cell-based, human; conditions: 50 μM, kinetic analysis
Description: as §4

HCT116/MUC1 cells [10] = assay: ChIP with anti-MUC1 C-ter antibody, Bax gene PP; type: cell-based, human; conditions: 50 μM, time course
Description: as §4

ZR-75-1 cells [11] = assay: ChIP with anti-MUC1 C-ter antibody, Bax gene PP; type: cell-based, human; conditions: 50 μM, time course
Description: as §4

p53 [12] = molecular target: p53 (Homo sapiens, UniProt P04637, R273H); assay: Co-immunoprecipitation of Myc-MUC1-CD variants with p53 in transfected U2OS cells; type: cell-based; conditions: transiently transfected U2OS cells
Description: as §2
Plasmid construction and transfection. […] Transfections were performed in 60 mm tissue culture dishes using Fugene®-6 (Roche Applied Science, Indianapolis, Ind.) or, for the luciferase assays, in 24 well tissue culture plates using the calcium phosphate method (Invitrogen, Carlsbad, Calif.). […]

p53 [13] = molecular target: T1, p53 (Homo sapiens, UniProt P04637); assay: GST pull-down of 35S-labeled p53 by GST-MUC1-CD variants; type: binding; conditions: GST fusion proteins, 90 min at 4° C.
T1 construct: made in house; host or cells: cell-free TNT in vitro transcription/translation reaction (Promega)
Description: GST pull-down assays. […] After washing, the adsorbed proteins were resolved by SDS-PAGE and analyzed by autoradiography or Coomassie blue staining.

Compound	cell cycle progression (HCT116/MUC1 cells [1])	cell cycle progression (HCT116/vector cells [2])	association of p53 and MUC1 (HCT116/MUC1 cells [3])	binding of endogenous MUC1 and p53 (ZR-75-1 cells [4])	clonogenic survival following drug treatment (ZR-75-1 cells [5])	clonogenic survival of drug-treated cells [6]	p53 occupancy of the p21 gene p53RE2 (HCT116/vector cells [7])	MUC1 occupancy of p21 gene p53RE2 (HCT116/MUC1 cells [8])	MUC1 occupancy of p21 gene p53RE2 (ZR-75-1 cells [9])	MUC1 occupancy of the Bax gene PP (HCT116/MUC1 cells [10])	MUC1 occupancy of the Bax gene PP (ZR-75-1 cells [11])	complex formation with p53 in cells (p53 [12])	binding to 35S-labeled p53 in vitro (p53 [13])
N.N.[Cl][Pt][Cl] [cisplatin]	G1 arrest of cell cycle progression	G1 arrest of cell cycle progression	increase in the association of p53 and MUC1	Increased binding of endogenous MUC1 and p53	increased by MUC1 expression	higher	increased	increases	increases	increased through 4-6 h	increased through 4-6 h		
COc1cc([C@@H]2c3cc4c(cc3[C@@H](O[C@@H]3O[C@@H]5CO[C@@H](C)O[C@H]5[C@H](O)[C@H]3O)[C@H]3COC(=O)[C@H]23)OCO4)cc(OC)c1O [etoposide]	G1 arrest of cell cycle progression	G1 arrest of cell cycle progression	increase in the association of p53 and MUC1	Increased binding of endogenous MUC1 and p53	increased by MUC1 expression	higher	increased	increases	increases	increased through 4-6 h	increased through 4-6 h		
MUC1-CD(1-51): deletion variant of MUC1-CD, amino acids 1-51 (SEQ ID NO:5) (CQCRRKNYGQLDIFPARDAYHPMSEYPTYHTHGRYVPPSSTNRSPYEKVSE; listed as Homo sapiens)												in vivo binding of p53	sufficient to form a complex with p53 in vitro
